Results published in patent publication US20150313824A1, “SKIN CARE COMPOSITION” (Conopco, Inc., d/b/a UNILEVER, priority 2013, published 2015).

tested on: EA.Hy926 cells; experiment: Measurement of intracellular nitric oxide using flow-cytometry (DAF FM-DA); format: cell-based, human; details: summary of the data in Table-1
Experimental: The cultured human endothelial cell line EA.Hy926 cells were procured from American Type Culture Collection ([…]) and were cultured in DMEM (Sigma) supplemented with 2 mM L-glutamine, 100 U/ml penicillin, 100 μg/ml streptomycin and 10% vol/vol FBS (Gibco, Invitrogen). Cells were cultured at 37° C. in 95% humidified air with 5% CO2. After attaining 70-80% confluence, the cells were sub-cultured by trypsinization (0.25% Tryp-EDTA, for 2-3 min). For experimental purpose, cells were seeded onto 24 well tissue culture plates (CLS3524 Sigma). […] Measurement of Intracellular Nitric Oxide Using Flow-Cytometry Experimental Flow: […] EAHy926 (5×10^5) cells were seed into 24 well tissue culture plate and allowed to adhere for 12-16 hrs. 2. After adherence, cells were treated with or without 4.41 μg/ml (10 μM) folic acid and incubated for 24 hrs in DMEM without FBS. 3. The cells in 24 well tissue culture plates were loaded with DAF FM-DA (1 μM) for 30 min, washed twice with serum free medium. 4. Subsequently, cells were stimulated with different concentration of EGCG for 30 mins and washed twice with serum free medium. 5. The stimulated cells were trypsinized with 0.25% Trypsin-EDTA and fixed with 2% PFA for 15 min. 6. The suspension of cells were acquired using flow-cytometry. A population of 10,000 cells were gated and segregated based on their relative fluorescence intensities using FACS Calibur (BD; SanDiego). The mean yield of two distinct populations was measured and compared with the respective population in untreated cells. The data on the Nitric Oxide activity is summarized in Table-1 for the various compositions which may be […] catechins (EGCG) alone at various concentrations or folic acid alone or EGCG in combination with folic acid.

With `O=C(O[C@@H]1Cc2c(O)cc(O)cc2O[C@@H]1c1cc(O)c(O)c(O)c1)c1cc(O)c(O)c(O)c1` [EGCG, (−)-epigallocatechin gallate] the “NO activity, effect of increasing concentration or of combination (in words)” value was “increases NO activity till an EGCG concentration of about 11 μg and thereafter the NO activity decreases”.

same assay, conditions: with or without folic acid pretreatment 24 hrs, then EGCG stimulation 30 mins, DAF FM-DA fluorescence compared with untreated cells (1.0 = no increase over untreated sample)

Work on `O=C(O[C@@H]1Cc2c(O)cc(O)cc2O[C@@H]1c1cc(O)c(O)c(O)c1)c1cc(O)c(O)c(O)c1` [Example 4, EGCG] yielded an NO activity of 3.75.
For `O=C(O[C@@H]1Cc2c(O)cc(O)cc2O[C@@H]1c1cc(O)c(O)c(O)c1)c1cc(O)c(O)c(O)c1` [Example 6, EGCG], the NO activity was 2.32.
`O=C(O[C@@H]1Cc2c(O)cc(O)cc2O[C@@H]1c1cc(O)c(O)c(O)c1)c1cc(O)c(O)c(O)c1` [Example 8, EGCG] was tested, and the NO activity was 0.63.
Work on `O=C(O[C@@H]1Cc2c(O)cc(O)cc2O[C@@H]1c1cc(O)c(O)c(O)c1)c1cc(O)c(O)c(O)c1` [Example 2, EGCG] yielded an NO activity of 2.87.
Work on `O=C(O[C@@H]1Cc2c(O)cc(O)cc2O[C@@H]1c1cc(O)c(O)c(O)c1)c1cc(O)c(O)c(O)c1` [Example 7, EGCG] yielded an NO activity of 1.64.
Work on `O=C(O[C@@H]1Cc2c(O)cc(O)cc2O[C@@H]1c1cc(O)c(O)c(O)c1)c1cc(O)c(O)c(O)c1` [Example 5, EGCG] yielded an NO activity of 3.58.
With `O=C(O[C@@H]1Cc2c(O)cc(O)cc2O[C@@H]1c1cc(O)c(O)c(O)c1)c1cc(O)c(O)c(O)c1` [Example 3, EGCG] the NO activity was 2.98.
